Results on 24 molecules are retold here after patent publication US20240308992A1 (Biopolar Youtang(Guangdong) Pharmaceutical Co., Ltd., priority 2021, published 2024).

pIC50: −log10 of the molar value. Bounds are passed on as bounds.

The experiment addresses T1, Drak2 (Homo sapiens, UniProt O94768).
T1 sequence (O94768 1-372): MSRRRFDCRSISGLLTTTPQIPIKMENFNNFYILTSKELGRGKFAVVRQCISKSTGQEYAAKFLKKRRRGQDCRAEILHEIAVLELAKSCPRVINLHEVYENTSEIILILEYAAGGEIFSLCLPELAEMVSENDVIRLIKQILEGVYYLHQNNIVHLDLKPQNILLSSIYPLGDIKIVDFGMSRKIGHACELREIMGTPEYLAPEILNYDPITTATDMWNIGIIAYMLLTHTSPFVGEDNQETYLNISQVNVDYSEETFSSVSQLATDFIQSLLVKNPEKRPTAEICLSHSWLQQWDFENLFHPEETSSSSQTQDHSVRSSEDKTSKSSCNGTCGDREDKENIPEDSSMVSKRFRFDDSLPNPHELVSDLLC
The experiment in a line: Drak2 activity test, ADP-Glo kinase assay (Promega). It is filed as biochemical. To be noted: inhibition of Drak2 kinase activity, 2 h room temperature, activity range classes, read-out: IC50_Drak2.

On to `COc1cc(-c2cncc(-c3cc(NC(=O)C(C)C4CCC4)cs3)n2)ccc1C(=O)N(C)C1CCN(C)CC1` (stereo not drawn) [Example B95, 4-(6-(4-(2-cyclobutylpropanamido)thiophen-2-yl)pyrazin-2-yl)-2-methoxy-N-methyl-N-(1-methylpiperidin-4-yl)benzamide], for which the pIC50 was 7.00 to 7.96.

Take `COc1cc(-c2cncc(-c3cc(NC(=O)C4CC45CCC5)cs3)n2)ccc1C(=O)N(C)C1CCN(C)CC1` (stereo not drawn) [Example B84, N-(5-(6-(3-methoxy-4-(methyl(1-methylpiperidin-4-yl)carbamoyl)phenyl)pyrazin-2-yl)thiophen-3-yl)spiro[2.3]hexane-1-carboxamide]: the pIC50 was 7.00 to 7.96.

In the case of `COc1cc(-c2cncc(-c3cc(NC(=O)CC4CC4)cs3)n2)ccc1C(=O)N(C)OC` [Example B79, 4-(6-(4-(2-cyclopropylacetamido)thiophen-2-yl)pyrazin-2-yl)-N,2-dimethoxy-N-methylbenzamide], the pIC50 is 7.00 to 7.96.

Consider `COc1cc(-c2cncc(-c3cc(OCC[C@H](C)CN)cs3)n2)ccc1C(=O)N(C)C1CCN(C)CC1` [Example 200, 4-[6-(4-{[(3S)-4-amino-3-methylbutyl]oxy}thiophen-2-yl)pyrazin-2-yl]-2-methoxy-N-methyl-N-(1-methylhexahydropyridin-4-yl) benzamide], for which the pIC50 was 7.00 to 7.96.

Regarding `COc1cc(-c2cncc(-c3cc(NC(=O)CC4CC4)cs3)n2)ccc1C(=O)Nc1nnco1` [Example B46, 4-(6-(4-(2-cyclopropylacetamido)thiophen-2-yl)pyrazin-2-yl)-2-methoxy-N-(1,3,4-oxadiazol-2-yl)benzamide], the pIC50 was 7.00 to 7.96.

For the molecule `COc1cc(-c2cncc(-c3cc(NC(=O)CC4CC(F)C4)cs3)n2)ccc1C(=O)N(C)C1CC2(C1)CN(C)C2` (stereo not drawn) [Example B99, 4-(6-(4-(2-(3-fluorocyclobutyl)acetamido)thiophen-2-yl)pyrazin-2-yl)-2-methoxy-N-methyl-N-(2-methyl-2-azaspiro[3.3]heptan-6-yl)benzamide], the pIC50 is above 8.00.

`CCCCC(=O)Nc1csc(-c2cncc(-c3ccc(C(=O)NS(=O)(=O)N(C)C)c(OC)c3)n2)c1` [Example B7, 2-methoxy-4-(6-(4-pentanamidothiophen-2-yl)pyrazin-2-yl)-N-(N,N-dimethylsulfamoyl)benzamide]: the pIC50 was 6.00 to 7.00.

For `COc1cc(-c2cncc(-c3cc(NC(=O)CC4CCCCC4)cs3)n2)ccc1C(=O)Nc1nnn[nH]1` [Example B14, 2-methoxy-4-(6-(4-(2-cyclohexylacetamido)thiophen-2-yl)pyrazin-2-yl)-N-(1H-tetrazol-5-yl)benzamide], the pIC50 was 6.00 to 7.00.

For the molecule `COc1ccc(-c2cncc(-c3cc(NC(=O)C4CCC4)cs3)n2)cc1OC` [Example A7, N-(5-(6-(3,4-dimethoxyphenyl)pyrazin-2-yl)thiophen-3-yl)cyclobutanecarboxamide], the pIC50 is 6.00 to 7.00.

For `CCCCC(=O)Nc1csc(-c2cncc(-c3ccc(C(=O)Nc4nnco4)c(OC)c3)n2)c1` [Example B23, 2-methoxy-4-(6-(4-pentanamidothiophen-2-yl)pyrazin-2-yl)-N-(1,3,4-oxadiazol-2-yl)benzamide], the pIC50 was 7.00 to 7.96.

On to `COc1cc(-c2cncc(-c3cc(NC(=O)CC4CCCC4)cs3)n2)ccc1C(=O)N1CCOCC1` [Example B33, 2-cyclopentyl-N-(5-(6-(3-methoxy-4-(morpholine-4-carbonyl)phenyl)pyrazin-2-yl)thiophen-3-yl)acetamide], for which the pIC50 is 7.00 to 7.96.

`CCCCC(=O)Nc1csc(-c2cncc(C3=CCN(S(C)(=O)=O)CC3)n2)c1` [Example D8, N-(5-(6-(1-(methylsulfonyl)-1,2,3,6-tetrahydropyridin-4-yl)pyrazin-2-yl)thiophen-3-yl)pentanamide]: the pIC50 is 5.00 to 6.00.

Consider `CCCCC(=O)Nc1csc(-c2cncc(-c3ccc(C(=O)N(C)CCN(C)C)c(OC)c3)n2)c1` [Example B55, N-(2-(dimethylamino)ethyl)-2-methoxy-N-methyl-4-(6-(4-pentanamidothiophen-2-yl)pyrazin-2-yl)benzamide], for which the pIC50 was 7.00 to 7.96.

`COc1cc(-c2cncc(-c3cc(NC(=O)CC4CCC4)cs3)n2)ccc1OCCc1cnn(C)c1` [Example 187, 2-Cyclobutyl-N-(5-(6-(3-methoxy-4-(2-(1-methyl-1H-pyrazol-4-yl)ethoxy)phenyl)pyrazin-2-yl)thiophen-3-yl) acetamide]: the pIC50 is 7.00 to 7.96.

`COc1cc(-c2cncc(-c3cc(NC(=O)CC4CCC4)cs3)n2)ccc1O` [Example 183]: the pIC50 was 7.00 to 7.96.

In the case of `CCC1(CC(=O)Nc2csc(-c3cncc(-c4ccc(C(=O)N(C)C5CCN(C)CC5)c(OC)c4)n3)c2)CCC1` [Example B86, 4-(6-(4-(2-(1-ethylcyclobutyl)acetamido)thiophen-2-yl)pyrazin-2-yl)-2-methoxy-N-methyl-N-(1-methylpiperidin-4-yl)benzamide], the pIC50 was 6.00 to 7.00.

With `CCCCC(=O)Nc1csc(-c2cncc(-c3cc(OC)cc(OC)c3)n2)c1` [Example A18, N-(5-(6-(3,5-dimethoxyphenyl)pyrazin-2-yl)thiophen-3-yl)pentanamide], the pIC50 was 6.00 to 7.00.

Regarding `COc1cc(-c2cncc(-c3cc(NC(=O)CC4CCC4)cs3)n2)ccc1O` [Example 186], the pIC50 was above 8.00.

Take `COc1cc(-c2cncc(-c3cc(NC(=O)CC4CCC4)cs3)n2)ccc1S(=O)(=O)C1CCC1` [Example A48, 2-cyclobutyl-N-(5-(6-(4-(cyclobutylsulfonyl)-3-methoxyphenyl)pyrazin-2-yl)thiophen-3-yl)acetamide]: the pIC50 was 6.00 to 7.00.

As to `CCCCC(=O)Nc1csc(-c2cncc(-c3ccc(OCCN4CCS(=O)(=O)CC4)c(OC)c3)n2)c1` [Example 180, N-{5-[6-(4-{[2-(1,1-dioxo-1 λ^6-1,4-thiomorpholin-4-yl)ethyl]oxy}-3-methoxyphenyl)pyrazin-2-yl]thiophen-3-yl} pentanamide], the pIC50 was 7.00 to 7.96.

In the case of `CN1CCC(Cn2cc3ccc(-c4cncc(-c5cc(NC(=O)CC6CCC6)cs5)n4)cc3n2)CC1` [Example A50, 2-cyclobutyl-N-(5-(6-(2-((1-methylpiperidin-4-yl)methyl)-2H-indazol-6-yl)pyrazin-2-yl)thiophen-3-yl)acetamide], the pIC50 is 7.00 to 7.96.

Turning to `CCCCCCCCCC(=O)Nc1csc(-c2cncc(-c3ccc(C(=O)Nc4nnn[nH]4)c(OC)c3)n2)c1` [Example B20, 2-methoxy-4-(6-(4-decanamidothiophen-2-yl)pyrazin-2-yl)-N-(1H-tetrazol-5-yl)benzamide], the pIC50 is below 5.00.

With `COc1ccc(-c2cncc(-c3cc(NC(=O)CC4CCC4)cs3)n2)cc1OC` [Example A32, 2-cyclobutyl-N-(5-(6-(3,4-dimethoxyphenyl)pyrazin-2-yl)thiophen-3-yl)acetamide], the pIC50 was 7.00 to 7.96.

As for `COc1cc(-c2cncc(-c3cc(NC(=O)CC4CCC4)cs3)n2)ccc1C(=O)Nc1nnnn1C` [Example B26, 2-methoxy-4-(6-(4-(2-cyclobutylacetamido)thiophen-2-yl)pyrazin-2-yl)-N-(1-methyl-1H-tetrazol-5-yl)benzamide], the pIC50 was 7.00 to 7.96.
